Data from patent publication US8759363B2, “Quinazoline-based T cell proliferation inhibitors” (Yissum Research Development Company of the Hebrew …, priority 2010, dated 2014).

How the values were obtained:
[1] = test system: PBMC; test: PBMC proliferation, BrdU incorporation; assay type: cell-based, human; details: Homo sapiens; ConA-stimulated PBMC, BrdU uptake; nM ± SD; read-out: IC50 PBMC proliferation inhibition
Procedure: Blood samples were taken from healthy donors and loaded on a Ficoll density gradient to purify the PBMC population. T cells were purified by human anti-CD3 using an autoMACS instrument (Miltenyi Biotec, Bergisch-Gladbach, Germany), according to the manufacturer's instructions. The identity of T cells was confirmed by flow cytometry, as they stained positive for CD3. Cells were stimulated with ConA (10 μg/ml), ODN2006 (0.5 μg/ml; Enzo Life Sciences), or LPS (50 μg/ml; Sigma-Aldrich, Steinheim, Germany), for 72 h in the presence of the inhibitor, and their proliferation was measured in the BrdU incorporation assay as will be later described.
(§1) Cells were depleted of fetal calf serum (FCS) for 12 hours. They were then stimulated to proliferate by addition of ConA (10 μg/ml) for PBMC from healthy individuals and for Jurkat cells, FCS (10%) for HEK293 and A375 cells, PDGF (30 ng/ml) for NIH 3T3 cells, and EGF (30 ng/ml) for MDA-MB-231, Cells (1×10^5) were cultured in 96-well plates for 3 days in the presence or absence of inhibitors at the concentrations specified in the text. Each condition was tested in duplicate wells.
(§2) Proliferation was assessed by BrdU incorporation using a colorimetric ELISA kit (Roche, Germany). Subsequent to labeling with 10 μM BrdU, DNA was denatured and the cells were incubated with anti-BrdU-POD, prior to the addition of colorimetric substrate (TMB). The reaction product was quantified by measuring absorbance at 450 nm in an ELISA plate reader (ELx800 BIO-TEK Instruments Inc.).
(§3) Since we were not prejudiced towards any specific protein kinase, we used a biological assay for T cell proliferation. We tested our libraries for inhibition of proliferation of PBMC and Jurkat cells (Table 3). Cell proliferation was measured by BrdU uptake. […] PBMC cells were stimulated by a non-specific T cell mitogen, Concanavalin A (ConA). All of the compounds that were tested inhibited proliferation at micromolar or sub-micromolar concentrations.

[2] = test system: Jurkat cells; test: Jurkat cell proliferation, BrdU incorporation; assay type: cell-based, human; details: Homo sapiens, Jurkat, BrdU uptake; nM ± SD; read-out: IC50 Jurkat cells proliferation inhibition
Procedure: as §1, §2, §3

[3] = test system: IL-2 secretion by 2C splenocytes stimulated by irradiated BALB/c splenocytes; test: IL-2 levels in MLR supernatants; assay type: cell-based, mouse; details: 24, 48 and 72 h MLR; compound 2 up to 1 μM
Procedure: In the mixed lymphocyte reaction, stimulator cells cause responder cells to proliferate, owing to alloreactivity [Reich-Zeliger et al., 2004]. Splenocytes from 2c mice were stimulated by irradiated splenocytes from BALB/c mice in the presence of the evaluated compound at the concentrations specified. Cultures were incubated for 72 hours in 96-well plates.
Jurkat or PBMC cells were treated for 12 h with 1 μM, 0.5 μM or no inhibitor. Cells (1×10^6) were plated in 24-well plates (Nunc) and stimulated by C305 (dilution 1:500), anti-CD28 (1:100), PMA (50 ng/ml) or ionomycin (1 μM) for 12 h. Alternately, cells were stimulated for 24, 48 and 72 h in MLR. After stimulation cells were centrifuged at 130×g for 5 minutes at room temperature.
Supernatants were collected and IL-2 was assayed using the IL-2 ELISA kit (BioSource International USA, KH0022) according to the manufacturer's instructions. Absorbance was read at 450 nm in an ELISA plate reader (ELx800 BIO-TEK Instruments Inc.).
In vivo, T cells are stimulated by neighboring cells. In order to test the effect of 2 on cell-stimulated IL-2 secretion, the supernatants of splenocytes after 24, 48 and 72 h MLR were collected and analyzed for their IL-2 levels (FIG. 5C). […] At higher concentrations, no viable cells remained.

[4] = test system: CD8+ (2C) and CD4+ (TEA) T cells; test: MLR, double-positive CD8+1B2+ (2C) or CD4+/Va2+ (TEA) effector cells by FACS; assay type: cell-based, mouse; details: 72 h MLR
Excerpt: Mice used included male and female 6- to 12-week-old CB6/F1 mice, obtained from the Roscoe B. Jackson Memorial Laboratory (The Jackson Laboratory, Bar Harbor, Me., http://www.jax.org). A breeding pair of transgenic (Tg) H-2b mice expressing the T-cell antigen receptor (TCR) 1B2 from the CD8+ clone 2C with specificity for H-2Ld was kindly provided by Janko Nikolic-Zugic (Memorial Sloan-Kettering Cancer Center, New York, http://www.mskcc.org). A breeding pair of Tg H-2b mice expressing the TCR from the CD4+ clone known as TEA with specificity for I-Ead allopeptide, cross-presented by host APC and bound to I-Ab and was kindly provided by Alexander Y. Rudensky (University of Washington, Seattle). I-Ead allopeptide corresponds to the positions 52 to 68 from the alpha-chain of I-E class II molecules and is expressed in all APCs from H-2b/I-E+ strains (CB6F1-hybrid of C57BL/6 and Balb/c). C57BL/6 mice are H-2b but I-E−, whereas BALB/c are H-2d and I-E+, and therefore their F1 hybrids are H-2b/1-E+ and able to directly present antigen.
Responder 2C splenocytes were harvested, and the cell suspensions were treated with Tris-buffered ammonium chloride to remove RBC. […] On day 3, the MLR cultures were harvested, and analyzed by FACS for CD4 or CD8 levels.
FACS analysis was performed using a modified FACScan (BD Biosciences, Mountain View, Calif.). Fluorescence data were collected during one minute. […]

[5] = test system: 2C (stimulated) cells; test: MLR with resting control cells, stimulated 2C cells; assay type: cell-based, mouse; details: 0.5 μM, 72 h MLR with IL-7; no inhibitor 3805
Excerpt: (§4) The aim of this test was to determine whether 2 affects only the proliferating cells or there is a general mechanism affecting all cell numbers. For this purpose we mixed 3 cell types: […]: BALB/c, 2C and OT1; […]: CB6F1, TEA and OT2. The OT1 and OT2 are splenocytes that were isolated from OT1 and OT2 mice (Jackson Laboratories, Bar Harbor, Me.),
(§5) Thus, the ability to monitor the fate of proliferation and resting cells by FACS was enabled due to the use of the MLR described above for CD4+ and CD8+ and the addition of OT2 and OT1 splenocytes, respectively.
(§6) Proliferating cells often secrete cytokines that induce survival of neighbouring cells; since the proliferation was expected to be inhibited we added 50 ng/ml of IL-7. This concentration is sufficient to keep the cells alive, but not to induce proliferation.
(§7) Irradiated Balb splenocytes were incubated for 72 h with 2C, and OT1 splenocytes in the presence of IL-7 W/O inhibitor.
(§8) The CD4+ and CD8+ were stimulated to proliferate, whereas in the absence of specific stimuli the OT1 and OT2 cell populations were resting, and theses cells were kept alive by the administration of IL-7. […] The number of 2C and OT1 cells that were treated with 0.5 μM 2 was 286 and 1148, respectively, while the number of 2C and OT1 cells that were treated with 0.5 μM 21 (control) was 4767 and 2468, respectively. This is depicted as a bar-graph in FIG. 8C.

[6] = test system: OT1 (resting) cells; test: MLR with resting control cells, resting OT1 cells; assay type: cell-based, mouse; details: 0.5 μM, 72 h MLR with IL-7; no inhibitor 2459
Excerpt: as §4, §5, §6, §7, §8

[7] = test system: TEA (stimulated) cells; test: MLR with resting control cells, stimulated TEA cells; assay type: cell-based, mouse; details: 0.5 μM, 72 h MLR with IL-7; no inhibitor 3850
Excerpt: as §4, §5, §6
(§9) The number of TEA and OT2 cells that were treated with 0.5 μM 2 was 1452 and 826, respectively, while the number of 2C and OT1 cells that were treated with 0.5 μM 21 was 3003 and 903, respectively. This is depicted as a bar-graph in FIG. 9C.

[8] = test system: OT2 (resting) cells; test: MLR with resting control cells, resting OT2 cells; assay type: cell-based, mouse; details: 0.5 μM, 72 h MLR with IL-7; no inhibitor 1025
Excerpt: as §4, §5, §6, §9

IC50 [2]: 850 ± 0.21 nM
melting point: > 250 °C
SMILES: Cc1ccc(Nc2nc(-c3cc(O)c(O)c(O)c3)nc3ccccc23)cc1 [Compound 21, 5-(4-(p-tolylamino)quinazolin-2-yl)benzene-1,2,3-triol]
IC50 [1]: 850 ± 0.21 nM
IL-2 levels in MLR supernatants [3]: decreased after 72 h
percentage of double-positive effector cells [4]: no reduction was observed
number of 2C (stimulated) cells [5]: 4767
number of OT1 (resting) cells [6]: 2468
number of TEA (stimulated) cells [7]: 3003
number of OT2 (resting) cells [8]: 903
